The source of these data is ChEMBL document CHEMBL5625223 (Eur J Med Chem, 2023).

Activity calls are given as the source filed them. The rule behind the calls is not given here.

Experiment [1] concerns the target T1, 5-hydroxytryptamine receptor 2B (Homo sapiens, UniProt P41595). Briefly: Binding affinity to 5HT2B receptor (unknown origin) at 10 uM relative to control. The conditions noted are these: filed as antagonist.
Experiment [2] concerns the target T2, 5-hydroxytryptamine receptor 2A (Homo sapiens, UniProt P28223). Briefly: Binding affinity to 5HT2A receptor (unknown origin) at 10 uM relative to control.
In experiment [3] the target is T1, 5-hydroxytryptamine receptor 2B. Briefly: Displacement of [3H]-LSD from human 5-HT2B receptor expressed in HEK cells assessed as inhibition constant incubated for 1 hr. It counts as cell-based. (Displacement assays read how much labelled ligand stays bound in the presence of the test substance.)
Experiment [4] deals with Adenosine receptor A2a (Homo sapiens) (UniProt P29274). Briefly: Displacement of […] from human A2AR expressed in HEK cells at 10 uM relative to control. It counts as cell-based.
For experiment [5], the target named is T3, 5-hydroxytryptamine receptor 2C (Homo sapiens, UniProt P28335).
T3 sequence (P28335 whole entry): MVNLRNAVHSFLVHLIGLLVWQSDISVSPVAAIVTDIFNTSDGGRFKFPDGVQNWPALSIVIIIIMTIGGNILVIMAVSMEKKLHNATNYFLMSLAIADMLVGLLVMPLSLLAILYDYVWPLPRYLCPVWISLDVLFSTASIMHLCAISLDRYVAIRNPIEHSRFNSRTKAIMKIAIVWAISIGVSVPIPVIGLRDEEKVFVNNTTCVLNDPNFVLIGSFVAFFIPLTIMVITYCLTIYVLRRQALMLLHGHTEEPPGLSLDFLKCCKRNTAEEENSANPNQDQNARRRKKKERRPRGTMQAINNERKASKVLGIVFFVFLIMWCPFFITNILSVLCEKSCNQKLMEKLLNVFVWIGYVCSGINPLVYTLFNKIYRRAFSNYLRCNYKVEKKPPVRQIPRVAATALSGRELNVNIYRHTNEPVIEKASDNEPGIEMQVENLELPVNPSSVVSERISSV
Briefly: Displacement of [3H]-Mesulergine from human 5-HT2C expressed in Flp-In-T-REx-293 cells assessed as inhibition constant incubated for 1 hr. The format is cell-based. The following applies: read-out: Ki.

In a further experiment the target is T4, Adenosine receptor A1 (Homo sapiens, UniProt P30542).
T4 sequence (P30542 whole entry): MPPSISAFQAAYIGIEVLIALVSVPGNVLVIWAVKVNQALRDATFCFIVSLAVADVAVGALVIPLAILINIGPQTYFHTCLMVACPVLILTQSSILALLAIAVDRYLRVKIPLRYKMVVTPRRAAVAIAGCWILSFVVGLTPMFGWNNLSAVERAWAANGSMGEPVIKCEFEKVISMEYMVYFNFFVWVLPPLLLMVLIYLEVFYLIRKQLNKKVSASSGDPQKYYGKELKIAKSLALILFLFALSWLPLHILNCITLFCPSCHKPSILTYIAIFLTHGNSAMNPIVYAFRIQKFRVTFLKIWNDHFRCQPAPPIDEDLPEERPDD
Briefly: Displacement of […] from human A1AR expressed in Flp-In-T-REx-293 cells assessed as inhibition constant. The format is cell-based.

Experiment [6] addresses T5, Adenosine receptor A3 (Homo sapiens) (UniProt P0DMS8).
T5 sequence (whole entry): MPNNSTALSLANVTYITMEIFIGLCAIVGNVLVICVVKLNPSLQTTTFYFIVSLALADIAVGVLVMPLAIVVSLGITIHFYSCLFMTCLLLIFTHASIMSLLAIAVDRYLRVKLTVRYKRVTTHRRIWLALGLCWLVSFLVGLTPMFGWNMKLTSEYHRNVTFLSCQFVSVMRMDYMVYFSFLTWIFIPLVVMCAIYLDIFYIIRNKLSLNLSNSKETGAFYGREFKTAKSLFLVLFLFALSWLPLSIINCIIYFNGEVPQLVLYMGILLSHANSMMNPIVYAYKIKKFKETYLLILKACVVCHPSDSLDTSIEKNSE
Briefly: Displacement of […] from human A3AR expressed in HEK cells at 10 uM relative to control. The format is cell-based. The conditions noted are these: filed as agonist.

Experiment [7] has as its target T6, 5-hydroxytryptamine receptor 2C (Homo sapiens) (UniProt P28335).
T6 sequence (whole entry): T3 sequence (P28335 whole entry)
The conditions noted are these: Flp-In-T-REx-293, filed as antagonist, time 1.0 hrs.

The species named for another experiment is Homo sapiens. Briefly: Selectivity ratio of Kb for antagonist activity at human 5HT2B receptor to Kb for antagonist activity at human 5HT2C receptor.
In experiment [8] the target is T2, 5-hydroxytryptamine receptor 2A. The following applies: Flp-In-T-REx-293, time 1.0 hrs.
Experiment [9] concerns the target T1, 5-hydroxytryptamine receptor 2B. Briefly: Agonist activity at human 5HT2B receptor expressed in human Flp-In-293 cells assessed as beta-arrestin1 recruitment measured for 60 mins by BRET assay. The format is functional, cell-based. For orientation: Arrestin recruitment assays detect the binding of arrestin to an activated receptor.
For experiment [10] the target is unchanged. The following applies: Flp-In-T-REx-293, filed as antagonist, time 1.0 hrs.
The target is the same in experiment [11]. Briefly: Agonist activity at human 5HT2B receptor expressed in human Flp-In-293 cells assessed as Gq-mediated calcium flux measured for 60 mins by BRET assay. The format is functional, cell-based. In general terms: A change in cytosolic calcium serves as a functional read-out for many receptors and channels.
Experiment [12] has the same target. Briefly: Agonist activity at human 5HT2B receptor expressed in human Flp-In-293 cells assessed as beta-arrestin2 recruitment measured for 60 mins by BRET assay. The format is functional, cell-based.
Experiment [13] addresses T2, 5-hydroxytryptamine receptor 2A. Briefly: Displacement of [3H]ketanserin from human 5-HT2A receptor expressed in HEK293 cells at 10 uM incubated for 1 hr relative to control. It counts as cell-based.
Experiment [14] addresses T7, Alpha-2B adrenergic receptor (Homo sapiens, UniProt P18089).
T7 sequence (P18089 whole entry): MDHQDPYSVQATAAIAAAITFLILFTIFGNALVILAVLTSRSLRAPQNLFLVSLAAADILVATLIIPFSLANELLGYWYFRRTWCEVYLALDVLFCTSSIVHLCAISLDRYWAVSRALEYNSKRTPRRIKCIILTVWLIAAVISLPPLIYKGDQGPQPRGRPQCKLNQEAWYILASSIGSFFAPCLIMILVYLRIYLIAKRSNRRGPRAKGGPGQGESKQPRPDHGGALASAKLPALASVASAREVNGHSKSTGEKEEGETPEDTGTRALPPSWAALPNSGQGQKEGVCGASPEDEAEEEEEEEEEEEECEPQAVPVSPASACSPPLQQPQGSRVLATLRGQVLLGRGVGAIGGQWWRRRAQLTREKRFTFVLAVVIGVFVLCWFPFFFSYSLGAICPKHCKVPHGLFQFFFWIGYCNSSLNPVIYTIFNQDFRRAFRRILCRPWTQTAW
Briefly: Binding affinity to alpha2B receptor (unknown origin) assessed as inhibition constant.

The next experiment has as its target T8, Adenosine receptor A3 (Homo sapiens, UniProt P0DMS8).
T8 sequence (P0DMS8 whole entry): T5 sequence (whole entry)
Briefly: Displacement of […] from human A3AR expressed in HEK cells assessed as inhibition constant. It counts as cell-based.

The target of experiment [15] is Sodium-dependent dopamine transporter (Homo sapiens, UniProt Q01959). Briefly: Binding affinity to DAT (unknown origin) assessed as inhibition constant.
In experiment [16] the target is T3, 5-hydroxytryptamine receptor 2C. Briefly: Binding affinity to 5HT2C receptor (unknown origin) assessed as inhibition constant.
In experiment [17] the target is T9, Adenosine receptor A1 (Homo sapiens) (UniProt P30542).
T9 sequence (whole entry): T4 sequence (P30542 whole entry)
Briefly: Binding affinity to A1AR (unknown origin) at 10 uM relative to control. The following applies: filed as agonist.

Experiment [18] deals with T1, 5-hydroxytryptamine receptor 2B. Briefly: Binding affinity to 5HT2B receptor (unknown origin) assessed as inhibition constant.
For experiment [19], the target named is T2, 5-hydroxytryptamine receptor 2A. Briefly: Displacement of [3H]ketanserin from human 5-HT2A receptor expressed in HEK293 cells at 10 uM incubated for 1 hr. The format is cell-based.
For experiment [20], the target named is T6, 5-hydroxytryptamine receptor 2C (Homo sapiens). Briefly: Displacement of [3H]-Mesulergine from human 5-HT2C expressed in Flp-In-T-REx-293 cells at 10 uM incubated for 1 hr relative to control. It counts as cell-based. The conditions noted are these: filed as antagonist.
Experiment [21] deals with 5-hydroxytryptamine receptor 1D (Homo sapiens, UniProt P28221). Briefly: Binding affinity to 5HT1D receptor (unknown origin) assessed as inhibition constant.
5-hydroxytryptamine receptor 1D, sequence (P28221 whole entry): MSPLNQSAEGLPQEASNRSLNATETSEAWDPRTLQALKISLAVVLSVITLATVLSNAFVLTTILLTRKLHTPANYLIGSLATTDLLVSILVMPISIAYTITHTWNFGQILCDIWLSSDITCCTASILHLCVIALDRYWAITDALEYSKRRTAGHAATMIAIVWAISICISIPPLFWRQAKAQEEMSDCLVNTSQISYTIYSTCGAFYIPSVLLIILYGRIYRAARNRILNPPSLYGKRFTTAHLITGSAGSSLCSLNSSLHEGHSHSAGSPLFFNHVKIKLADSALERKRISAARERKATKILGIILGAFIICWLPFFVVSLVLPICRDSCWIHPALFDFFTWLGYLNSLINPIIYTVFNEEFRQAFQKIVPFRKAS

Adenosine receptor A2a (Homo sapiens), sequence (P29274 whole entry): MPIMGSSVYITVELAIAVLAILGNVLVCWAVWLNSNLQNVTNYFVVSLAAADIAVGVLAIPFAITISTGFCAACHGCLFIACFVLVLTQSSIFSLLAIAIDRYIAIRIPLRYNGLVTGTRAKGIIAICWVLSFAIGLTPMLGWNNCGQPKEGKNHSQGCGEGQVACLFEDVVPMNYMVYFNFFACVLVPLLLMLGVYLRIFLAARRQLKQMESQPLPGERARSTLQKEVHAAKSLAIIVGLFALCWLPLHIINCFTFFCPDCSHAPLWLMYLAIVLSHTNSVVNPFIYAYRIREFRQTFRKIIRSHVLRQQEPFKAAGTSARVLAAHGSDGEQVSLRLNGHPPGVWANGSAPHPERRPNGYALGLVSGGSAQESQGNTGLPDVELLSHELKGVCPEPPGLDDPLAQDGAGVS
T2 sequence (P28223 whole entry): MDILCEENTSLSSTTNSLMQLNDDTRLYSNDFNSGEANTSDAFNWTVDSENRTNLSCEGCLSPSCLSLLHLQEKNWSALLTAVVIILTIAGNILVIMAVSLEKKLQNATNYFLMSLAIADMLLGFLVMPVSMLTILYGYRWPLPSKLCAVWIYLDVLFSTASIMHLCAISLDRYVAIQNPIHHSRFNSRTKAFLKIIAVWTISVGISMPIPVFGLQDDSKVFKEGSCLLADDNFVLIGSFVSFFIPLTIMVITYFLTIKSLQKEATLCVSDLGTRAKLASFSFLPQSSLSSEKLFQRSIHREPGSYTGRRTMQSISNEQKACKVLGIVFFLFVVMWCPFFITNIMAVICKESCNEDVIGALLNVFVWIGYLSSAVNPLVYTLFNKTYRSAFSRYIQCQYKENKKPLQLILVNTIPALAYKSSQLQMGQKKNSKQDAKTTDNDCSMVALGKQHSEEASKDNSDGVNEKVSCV
T1 sequence (P41595 whole entry): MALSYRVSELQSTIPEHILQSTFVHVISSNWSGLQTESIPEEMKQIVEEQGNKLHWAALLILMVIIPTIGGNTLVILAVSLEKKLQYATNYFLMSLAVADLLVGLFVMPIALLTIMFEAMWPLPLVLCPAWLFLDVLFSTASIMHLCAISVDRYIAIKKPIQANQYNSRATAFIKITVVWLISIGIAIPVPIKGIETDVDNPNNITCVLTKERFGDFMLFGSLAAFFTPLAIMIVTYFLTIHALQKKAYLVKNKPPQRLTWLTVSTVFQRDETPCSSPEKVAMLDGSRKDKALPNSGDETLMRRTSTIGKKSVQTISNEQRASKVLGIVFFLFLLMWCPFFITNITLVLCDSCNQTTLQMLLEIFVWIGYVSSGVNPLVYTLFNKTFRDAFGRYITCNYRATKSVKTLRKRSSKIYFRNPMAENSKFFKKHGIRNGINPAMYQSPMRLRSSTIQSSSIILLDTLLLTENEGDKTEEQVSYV
Sodium-dependent dopamine transporter, sequence (Q01959 whole entry): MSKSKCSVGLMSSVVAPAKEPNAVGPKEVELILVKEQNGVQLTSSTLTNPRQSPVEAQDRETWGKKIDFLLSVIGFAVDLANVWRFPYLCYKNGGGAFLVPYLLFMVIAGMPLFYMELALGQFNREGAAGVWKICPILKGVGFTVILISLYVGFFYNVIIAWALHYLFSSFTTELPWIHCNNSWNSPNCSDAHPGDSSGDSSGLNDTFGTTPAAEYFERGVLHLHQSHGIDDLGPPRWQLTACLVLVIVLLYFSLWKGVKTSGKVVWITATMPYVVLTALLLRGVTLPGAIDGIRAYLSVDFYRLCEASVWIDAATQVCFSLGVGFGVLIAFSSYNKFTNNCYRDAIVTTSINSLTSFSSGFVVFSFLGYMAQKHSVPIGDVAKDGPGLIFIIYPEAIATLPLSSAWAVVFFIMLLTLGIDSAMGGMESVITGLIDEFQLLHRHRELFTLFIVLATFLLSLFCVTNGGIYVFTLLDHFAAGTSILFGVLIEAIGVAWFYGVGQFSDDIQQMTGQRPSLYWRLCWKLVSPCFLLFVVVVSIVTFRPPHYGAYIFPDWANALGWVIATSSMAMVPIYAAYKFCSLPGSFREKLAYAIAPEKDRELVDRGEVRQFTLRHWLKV

Turning to `OC[C@H]1O[C@@H](n2cnc3c(NC(C4CCC4)C4CCC4)nc(Cl)nc32)[C@H](O)[C@@H]1O`, the Activity in experiment [1] is 47%; in experiment [2], 31%.

For `CCOC(=O)[C@@]12C[C@@H]1[C@@H](n1cnc3c(N[C@H](C4CCC4)C4CC4)nc(I)nc31)[C@H](O)[C@@H]2O`, the Ki in experiment [3] came out at 0.033 µM; in experiment [5], 0.331 µM; at Adenosine receptor A1, 2.18 µM. For the same compound, the Activity in experiment [4] worked out at 15%; in experiment [6] it was 83%; in experiment [13], 13%. Moreover, the pKb in experiment [7] is 7.11; in experiment [8] it was under 5; in [10], 8.76. Further, the Ratio in the experiment filed under Homo sapiens came to 44.7. The result in experiment [9], in experiment [11] and in [12] was inactive.

In the case of `CSC[C@@]12C[C@@H]1[C@@H](n1cnc3c(NC(C4CCCC4)C4CCCC4)nc(Cl)nc31)[C@H](O)[C@@H]2O`, the Activity in experiment [4] was -12%; in [13] (filed as antagonist), 47%. Besides, the values for the Ki (in [5]; in [14]; at Adenosine receptor A3) were 0.481 µM, 1.7 µM and 5.27 µM, respectively.

As for `OC[C@@]12C[C@@H]1[C@@H](n1cnc3c(NC(C4CCCC4)C4CCCC4)nc(Cl)nc31)[C@H](O)[C@@H]2O`, the Activity in experiment [4] is -12%; in experiment [13], 1%. Besides, the Ki in experiment [15] worked out at 3.9 µM.

`O[C@H]1[C@H](n2cnc3c(NC(C4CCC4)C4CCC4)nc(Cl)nc32)[C@H]2C[C@@]2(CSc2ccccc2F)[C@H]1O`: the Ki in experiment [16] was found to be 1.25 µM; in [18], 0.601 µM. The Activity turned out to be 21% in experiment [2] and 45% in experiment [17].

Consider `CSC[C@@]12C[C@@H]1[C@@H](n1cnc3c(NC(C4CCCC4)C4CCCC4)nc(SC)nc31)[C@H](O)[C@@H]2O`, for which the Ki was found to be 0.222 µM in [3], 1.2 µM in experiment [14], 9.3 µM in experiment [19] and 6.62 µM on Adenosine receptor A3. In addition, the Activity was -60% in [4] and 49% in [20].

Regarding `O[C@H]1[C@H](n2cnc3c(NC(C4CCCCC4)C4CCCCC4)nc(Cl)nc32)[C@H]2C[C@@]2(CF)[C@H]1O`, the Activity in experiment [4] is -27%. Besides, the Ki is 0.163 µM in experiment [5], 3.6 µM in [14], 5.5 µM in [21] and 5.04 µM at Adenosine receptor A3.

Usually Ki stands for a measure of affinity in units of concentration, obtained from inhibition or displacement. One may read the pKb as the negative decadic logarithm of the Kb, by convention in mol/L. Read a high pKb as a low Kb.
